# Experiment: Human HepG2 cell viability assay in 384 well format
# Format: toxicity, cell-based
# Parameters: dose 125 nL, time 70.5 hour; cytotoxicity at 70.5 h: concentration not given beside the values
# Settings: HepG2 cells, read-out: Inhibition
row,Compound,cytotoxicity at 70.5 h [%]
1,NC(=O)c1ccc(-n2ccnc2-c2cccc(O)c2)cc1N1CCCC1,-6.04
2,Cc1cc(CN2CCN(C(=O)NCc3csc(C)n3)CC2)no1,17.1
3,Cc1ccc(N2CCCC(NCc3sccc3C)C2)nn1 (stereo unspecified),-7.95
4,Cn1cc(C(=O)CC2CCCN2C(=O)c2cccc3ncccc23)cn1 (stereo unspecified),14.5
5,COc1ccc2c(c1)CCCN(C(C)C(=O)NC(N)=O)C2 (stereo unspecified),-8.05
6,O=C(c1ccc(S(=O)(=O)NCc2ccon2)cc1)N1CCCCCC1,-7.49
7,Cn1cc(NC(=O)CNC(=O)N2CCN(c3ccccc3)CC2)cn1,-8.66
8,NS(=O)(=O)CCCNC(=O)c1cnc(-c2ccsc2)s1,-6.58
9,COCC1COCCC12CCN(C(=O)Cc1ccc(F)cc1)CC2 (stereo unspecified),-16.1
10,CN(C)Cc1cn2c(n1)CN(C1CCOC1)CC2 (stereo unspecified),-1.23
11,Fc1ccc(-c2cnc(CN3CCOC(Cn4cccn4)C3)o2)cc1 (stereo unspecified),-5.15
12,CC(C)NC1CCc2c(ccc(=O)n2CCN2CCCC2=O)C1 (stereo unspecified),-4.58
13,CN(Cc1ccsc1)C(=O)c1cccc(S(=O)(=O)NCC2CCCO2)c1 (stereo unspecified),15.1
14,O=C(NCc1cccnc1)c1ccc2nccn2c1,1.82
15,NC(=O)CN1CCC(C(=O)N2CCCC(OCc3cccnc3)C2)CC1 (stereo unspecified),-11
16,COc1ccccc1OC1(C(=O)O)CCN(c2nc(C)cnc2C)CC1,-6.64
17,Cc1noc(C)c1CN1CCC[C@]2(C[C@@H](Oc3ccccn3)CO2)C1,-0.591
18,CCOC(=O)CNC(=O)N1CCc2onc(-c3ccc(Cl)cc3)c2C1,-16.3
19,COC(=O)c1cc(C(=O)N2CCC(C)CC2)n(-c2ccccc2)n1,-6.41
20,COc1cccc(CCC(=O)N2CCN(Cc3noc(C)n3)CC2)c1,-0.347
21,Cc1cc(CN2CCOC(CNc3cccnn3)C2)on1 (stereo unspecified),-0.746

row,Compound,cytotoxicity at 70.5 h [%]
1,Cc1nc(-c2c(-c3ccccc3)ncn2CCCN2CCOCC2)c[nH]1,-8.17
2,Cc1nn(C)c(C)c1NC(=O)c1cccc(CN2CCS(=O)(=O)CC2)c1,-6.09
3,Cc1cc(C(=O)N2CCC(N3CCNC3=O)CC2)nn1C(C)(C)C,-16.5
4,COCCC(=O)N1CCC2(COCc3cnc(NCC4CC4)nc32)C1 (stereo unspecified),1.86
5,CC(C)NC(=O)N1CCN(CC2CC2)CC2(CC(=O)N(C)C2)C1 (stereo unspecified),-4.82
6,Cc1occc1C(=O)NCC(=O)N1CCC(COc2ccccc2)CC1,-2.93
7,NC(=O)CN1CCC(C(=O)NCC(O)c2cccc(F)c2)CC1 (stereo unspecified),-10.5
8,COc1ccccc1CC(=O)NS(=O)(=O)c1ccc(NC(C)=O)cc1,-6.22
9,COc1ccccc1C1CNCCN1C(=O)c1ccc(F)cc1 (stereo unspecified),0.353
10,Cc1cccnc1C(Cc1ccsc1)NCc1cnc(N(C)C)nc1 (stereo unspecified),-8.31
11,c1coc(CN2CCC(c3ccc4c(c3)OCO4)CC2)c1,-3.77
12,Cc1cnc(C(=O)N2CC[C@H]3[C@@H]2CCC(=O)N3c2cccnc2)cn1,-14.6
13,CCn1ccc(NS(=O)(=O)c2cccc(CSC)c2)n1,3.12
14,O=C(C1CCOC1)N1CCC(Cn2cc(-c3ccsc3)nn2)CC1 (stereo unspecified),-11.1
15,CC(C)(C)CC(=O)Nc1ccc(S(C)(=O)=O)nc1,-6.59
16,CCc1c(C)nc2n(c1=O)CC(C(=O)NCc1cccs1)CS2 (stereo unspecified),23
17,C[C@@H]1CN(C(=O)c2ccc(=O)[nH]c2)CC[C@@]1(O)C1CCOCC1,1.36
18,Cc1nc(CN(C)CC2CCCN2c2cccnn2)nc2ccccc12 (stereo unspecified),-5.19
19,Cc1ccc(CC(=O)N2CCOC(c3nc(C)n[nH]3)C2)cn1 (stereo unspecified),-4.16
20,O=C(CCc1nc(Cl)n[nH]1)N[C@H]1CC[C@H]1NC1Cc2ccccc2C1,-9.72
21,Cc1ccccc1N1CCCN(CC2(O)CCCNC2)CC1 (stereo unspecified),20.3

row,Compound,cytotoxicity at 70.5 h [%]
1,CN(C(=O)COC1CCCC1)C1CCN(CC2CCOC2)CC1 (stereo unspecified),-11.5
2,Cc1oncc1S(=O)(=O)N1CCCC(C)(Cc2ccc3c(c2)OCO3)C1 (stereo unspecified),14.3
3,CCC(=O)N1CCN(C)C(=O)C(Cc2ccccc2-c2cccs2)C1 (stereo unspecified),-1.38
4,OC1(CN2CCC(Oc3cccnc3)CC2)CNCCOC1 (stereo unspecified),-7.48
5,CN1CCc2onc(CNc3ncccn3)c2C1,-25.4
6,O=C(CN(C1=NCCCC1)c1ccccc1)c1ccc(OC(F)F)cc1,-4.12
7,FC(F)(F)c1cc(C2CCCN(c3cnccn3)C2)n2ccnc2n1 (stereo unspecified),-11.9
8,COc1ccnc(N2C[C@@H](NS(=O)(=O)N(C)C)[C@H](C(C)C)C2)n1,9.46
9,CCS(=O)(=O)NC1CCc2c(ccc(=O)n2CC2CC2)C1 (stereo unspecified),-7.75
10,CCN(c1ccc(C(=O)N(Cc2cnn(C)c2)C(C)C)cn1)C(C)C,-24.7
11,Cc1nc(-c2ccsc2)ccc1C(=O)NCCN1CCN(C)CC1,0.295
12,Cc1cc(=O)c2ccccc2n1CC1CCNC1 (stereo unspecified),-1.77
13,CC(C)Nc1ncnc2c1CCN(C(=O)c1ccc[nH]1)CC2,-9.63
14,Cc1[nH]nc2ncc(C(=O)N3CCN(CC(C)(C)O)CC3)cc12,-0.78
15,OC1CCCN(Cc2cn(CC3CCN(C4CCSCC4)CC3)nn2)C1 (stereo unspecified),-2.84
16,Cc1cc(C(=O)NCc2c(C)nn(C)c2C)nc(N2CCOCC2)n1,-1.14
17,Oc1cccc(CNCC2CCCO2)c1 (stereo unspecified),10.4
18,CCNc1ncc(C(=O)NCc2ccc3nsnc3c2)cn1,0.938
19,N#Cc1cccc(NC(=O)CCn2nc(-c3cccs3)oc2=O)c1,-11
20,CCCc1cncnc1N1CCC(NCc2cc3ccccc3[nH]2)CC1,8.09
21,COc1cccc(CC(=O)N2CCCC2c2nc(C)c(F)c(O)n2)c1 (stereo unspecified),-1.47

row,Compound,cytotoxicity at 70.5 h [%]
1,COC(C)(CNS(=O)(=O)c1cnn(C)c1)c1ccccc1F (stereo unspecified),-0.155
2,Cc1cc(CNC(=O)N2CCc3ccccc3C2CO)c(C)o1 (stereo unspecified),-5.72
3,Cc1cccn2c(NC(C)(C)C)c(C3CCN(C(=O)C4CC4)CC3)nc12,-6.96
4,COCC(=O)N1CCC(c2cc3n(n2)[C@@H](C(F)(F)F)C[C@@H](C)N3)CC1,-8.82
5,Cc1noc(-c2ccc(N3CCC(C(=O)N4CCCC4)CC3)nc2)n1,-1.82
6,CCOc1ncccc1CNC(=O)Nc1cc(C)nn1C,-4.27
7,Cc1ccc(-c2csc(-c3cccc(C(=O)O)c3)n2)cc1,19.5
8,CCn1nc(C)c2c1cnn2CCNS(=O)(=O)c1ccccc1,-6.47
9,Cc1ncsc1CCN1CCC(N(C)Cc2ncc(C(C)C)o2)C1 (stereo unspecified),38.4
10,NC(=O)C1(c2cnccn2)CCCN1C(=O)Cc1ccsc1 (stereo unspecified),-5.34
11,CC1(C)CC(N2Cc3nc(N4CCOCC4)ncc3C2=O)CC(C)(C)N1,13.3
12,Cc1nn(C)c(N2CCOCC2)c1CNC1CCN(C(C)(C)C)CC1,1.66
13,Cc1nn2c(NCC(N)=O)cc(-c3ccccc3)nc2c1C,15.2
14,O=C(c1nc(-c2ccc3cc[nH]c3c2)no1)N1CCCC1,-5.08
15,Cc1cnn(CC2CCCCN2C(=O)c2n[nH]c3ccccc23)c1 (stereo unspecified),16
16,Cc1nc(N2CCOCC2)nc2c1CN(C(=O)C(C)C)CC2,4.55
17,CN(C)C(=O)CN1C(=O)[C@H]2CC[C@@H]1CN(Cc1ccccc1C#N)C2,-4.2
18,Cn1cnnc1C1CCN(C(=O)c2cc3c(s2)CCCC3)CC1,14.6
